Experimental data published in patent US4895589A, “Heterocyclic compounds” (Imperial Chemical Industries PLC, priority 1985, dated 1990).

How the values were obtained:
Rice [1] = assay: Intermediate Retardant Test, rice; type: in vivo, Rice (Ishikari); details: Oryza sativa, 672 h, ~28 days, Table VII, read-out: Percentage Reduction in Height of Rice (Compared to formulation blank)
Experimental: (§1) Three species are involved in this test RICE, SPRING-BARLEY and APPLES. The variety and growth stages at spray are outlined in Table VI. Compounds were applied at 1000 ppm and 4000 ppm respectively (1 kg and 4 kg ha^-1 at a field volume of 1000 l/ha^-1) as an overall spray. This gives a foliar and root component in the test, i.e. this test will detect the activity of both root and foliar acting compounds. The rice was grown in 4" `paddy` pots, i.e. the roots and bottom of the stems are immersed in water under conditions corresponding to those in paddy fields. Spring barley and apples were grown in 4" pots. The plants were assessed for height to top-most ligule at approximately 28 days after treatment for spring barley and rice and for height to apex at approximately 28 days after the treatment for apples. In each case the result for the 1000 ppm and 4000 ppm test for each compound is compared to the height of the formulation blank in that test, presented as a percentage reduction in height compared to the formulation blank.
as §1, with “in Table XIV. Compounds were” for “in Table VI. Compounds were”, “that test, and presented as” for “that test, presented as”

Spring Barley = assay: Intermediate Retardant Test, spring barley; type: in vivo, Spring Barley (Atem/kym); details: Hordeum vulgare, 672 h, ~28 days, Table VIII, read-out: Percentage Reduction in Height of Spring Barley (Compared to formulation blank)
Experimental: as §1
as §1, with “in Table XIV. Compounds were” for “in Table VI. Compounds were”, “that test, and presented as” for “that test, presented as”

Apples = assay: Intermediate Retardant Test, apples; type: in vivo, Apples (Red Delicious); details: 672 h, ~28 days, Table IX, read-out: Percentage Reduction in Height of Apples (Compared to formulation blank)
Experimental: as §1
as §1, with “in Table XIV. Compounds were” for “in Table VI. Compounds were”, “that test, and presented as” for “that test, presented as”

[2] = test system: plant species of Whole Plant Screen (1) or (2); assay: Across screen comparison: total retardation relative to paclobutrazol (Whole Plant Screens (1) and (2)); type: in vivo; details: compounds of Table I, Table X
From the text: The following Example is a general indicative comparison of compounds from EP No. 0052424 with compounds from the preferred class in the present invention. The compounds have not been side-by-side tested on this Example because of the large numbers involved but the retardant activity can be compared using a standard which has been on each test.
The compounds which are compared in this Example have been tested on one of two tests. These are the Whole Plant Screen (1) and Whole Plant Screen (2) the methods for which are described in Examples 17 and 18 respectively.
An across screen comparison between compounds is made by expressing the total retardation (ie. sum of retardation scores recorded for each species tested) caused by the compound as a percentage of the total retardation caused by the standard in that test. The standard chemical gives a measure of the performance of the test and environmental factors. By expressing the test compound activity as a percentage of the standard compound activity these factors can be eliminated . The same standard has been used in every test and this is paclobutrazol a proprietory growth regulator.

Wheat [3] = details: WW, 4000 ppm, 2-3 weeks
Experimental: (§5) The compounds were tested for plant growth regulator activity against up to tweleve plant species for various growth effects relevant to plant growth regulation.
(§6) After spray, the plants were grown in a glasshouse with 25° C. day/22° C. night temperatures and supplementary lighting was supplied when necessary (from mercury vapour lamps), to provide a 16 hour photoperiod. The exception to this were the temperate cereals, wheat and barley, which were grown in 16° C. day 13° C. night temperatures
(§7) After 2-3 weeks in the glasshouse, depending on the time of year, the plants were visually assessed for morphological characteristics. Formulations blanks were used as controls to assess the Plants.

Barley [4] = details: BR, 4000 ppm, 2-3 weeks
Experimental: as §5, §6, §7

Agrostis tenius = details: AT, 4000 ppm, 2-3 weeks
Experimental: as §5, §6, §7

Cynosurus cristatus = details: CC, 4000 ppm, 2-3 weeks
Experimental: as §5, §6, §7

Dacrylis glomerata = details: DA, 4000 ppm, 2-3 weeks
Experimental: as §5, §6, §7

Soya = details: SY, 4000 ppm, 2-3 weeks
Sugar beet = details: SB, 4000 ppm, 2-3 weeks
Experimental: as §5, §6, §7

Tomato = details: TO, 4000 ppm, 2-3 weeks
Experimental: as §5, §6, §7

Vines = details: VN, 4000 ppm, 2-3 weeks
Experimental: as §5, §6, §7

Lettuce = details: LT, 4000 ppm, 2-3 weeks
Experimental: as §5, §6, §7

Barley [5] = assay: Whole Plant Screen (2), barley; type: in vivo, Barley (Atem); details: BR, 4000 ppm, 2-6 weeks, Table V
Experimental: (§2) Compound numbers 1, 5 and 7 (of the present invention) were tested against compounds A, B, C and D (compound Nos. 12, 2, 24 and 50 of Table 1 EP No. 0052424) on whole plant screen (2). The compounds were tested of plant growth regulator activity against five species and for various growth effects relevant to plant growth regulation. The structures are set out in FIG. 1.
(§3) The plant species used in this screen are presented in Table XII with the leaf stage at which they were sprayed Each chemical was applied at 4000 ppm (4 kg/ha in a 1000 l/ha field volume) using a tracksprayer and a SS8004E (Teejet) nozzle. […]

Wheat [6] = assay: Whole Plant Screen (2), wheat; type: in vivo, Wheat (Timmo); details: WW, 4000 ppm, 2-6 weeks, Table V
Experimental: Compound numbers 12-13, 16-17 and 19-20 were tested on an alternative whole plant screen (2). The compounds were tested for plant growth regulator activity against five species for various growth effects relevant to plant growth regulation.
The plant species used in this screen are presented in Table IV with the leaf stage at which they were sprayed. Each chemical was applied at 4000 ppm (4 kg/ha in a 1000 l/ha field volume) using a tracksprayer and a SS8004E (Teejet) nozzle. […]
After 2-6 weeks in the glasshouse, depending on the time of year, the plants were visually assessed for morphological characteristics. Formulation blanks were used as controls to assess the plants. […]

Rice [7] = assay: Whole Plant Screen (2), rice; type: in vivo, Rice (Ishikari); details: RC, 4000 ppm, 2-6 weeks, Table V
Experimental: (§4) After 2-6 weeks in the glasshouse, depending on the time of year, the plants were visually assessed for morphological characteristics. Formulation blanks were used as controls to assess the plants.
as §2, §3

Apple = assay: Whole Plant Screen (2), apple; type: in vivo, Apple (Red Delicious); details: Ap, 4000 ppm, 2-6 weeks, Table V
Experimental: as §4, §2, §3

Maize = details: MZ, 4000 ppm, 2-3 weeks
Experimental: as §5, §6, §7

| SMILES | Percent reduction in rice plant height vs formulation blank at 1000 ppm (Rice [1]) | Percent reduction in rice plant height vs formulation blank at 4000 ppm (Rice [1]) | height reduction vs blank at 1000 ppm (Spring Barley) | height reduction vs blank at 4000 ppm (Spring Barley) | percent reduction in plant height vs formulation blank at 1000 ppm (Apples) | percent reduction in plant height vs formulation blank at 4000 ppm (Apples) | Total Retardation expressed as a percentage of the total retardation caused by paclobutrazol [2] | Retardation score (1-3) with greening (G), apical damage (A), tillering/side shooting (T) (Wheat [3]) | Retardation score (1-3) with greening (G), apical damage (A), tillering/side shooting (T) (Barley [4]) | Retardation score (1-3) with greening (G), apical damage (A), tillering/side shooting (T) (Agrostis tenius) | Retardation score (1-3) with greening (G), apical damage (A), tillering/side shooting (T) (Cynosurus cristatus) | Retardation score (1-3) with greening (G), apical damage (A), tillering/side shooting (T) (Dacrylis glomerata) | Retardation score (1-3) with greening (G), apical damage (A), tillering/side shooting (T) (Soya) | Retardation score (1-3) with greening (G), apical damage (A), tillering/side shooting (T) (Tomato) | Retardation score (1-3) with greening (G), apical damage (A), tillering/side shooting (T) (Vines) | Retardation score (1-3) with greening (G), apical damage (A), tillering/side shooting (T) (Lettuce) | I = Interligular or internodal length reduction (Barley [5]) | T = Tillering or side shooting (Wheat [6]) | A = Apical damage (Apple) | T = Tillering or side shooting (Apple) | also measured |
| --- | --- | --- | --- | --- | --- | --- | --- | --- | --- | --- | --- | --- | --- | --- | --- | --- | --- | --- | --- | --- | --- |
| CCC(C)C#CC(O)(Cn1cncn1)C(C)(C)C (centres unmarked) [Compound 6, 2,2-dimethyl-3-hydroxy-3-(3-methyl-pent-1-yne-1-yl)-4-(1,2,4-triazol-1-yl)-butane] | 11.2% | 22.7% | 0.8% | 23.5% | 1.2% | 38.6% | 52.0 % of paclobutrazol | 3GT | 2G | 1 (10-30% retardation) | 1 (10-30% retardation) | 1 (10-30% retardation) | 2GA | 1G | 2GT | 1G | – | – | – | – | Retardation score (1-3) with greening (G), apical damage (A), tillering/side shooting (T) (Sugar beet): 1G |
| CC(C)(C)C(O)(C#CCC1CC1)Cn1cncn1 (centres unmarked) [Compound 16, 2,2-Dimethyl-3-hydroxy-3-(3-cyclopropyl-prop-1-yne-lyl)-4-(1,2,4-triazol-1-yl)-butane] | 14% | 34% | 11% | 24% | 31.8% | 62.8% | 100.0 % of paclobutrazol | – | – | – | – | – | – | – | – | – | 3 (61-100%) | 1 (10-30%) | 2 (31-60%) | 2 (31-60%) | G = Greening effect (Barley [5]): 1 (10-30%); G = Greening effect (Rice [7]): 2 (31-60%); I = Interligular or internodal length reduction (Rice [7]): 3 (61-100%); R = Retardation (Rice [7]): 3 (61-100%); T = Tillering or side shooting (Rice [7]): 1 (10-30%); G = Greening effect (Apple): 2 (31-60%) |
| CCCC(C)C#CC(O)(Cn1cncn1)C(C)(C)C (centres unmarked) [Compound 9, 2,2-dimethyl-3-hydroxy-3-(3-methyl-hex-1-yne-1-yl)-4-(1,2,4-triazol-1-yl)-butane] | 8.2% | 32% | 15.7% | 32.9% | – | 10.8% | 73.9 % of paclobutrazol | 2GT | 1 (10-30% retardation) | 1 (10-30% retardation) | 2 (21-60% retardation) | 2 (21-60% retardation) | 2GAT | 2G | 2GT | 1 (10-30% retardation) | – | – | – | – | – |
| CCCCC#CC(O)(Cn1cncn1)C(C)(C)CF (centres unmarked) [Compound 17, 2,2-dimethyl-1-fluoro-3-hydroxy-3-(hex-1-yne-1-yl)-4-(1,2,4-triazole-1-yl)-butane] | – | 22% | – | 24% | 9.9% | 54.5% | 150.0 % of paclobutrazol | – | – | – | – | – | – | – | – | – | 2 (31-60%) | 1 (10-30%) | 3 (61-100%) | 2 (31-60%) | G = Greening effect (Wheat [6]): 1 (10-30%) |
| CCCCCCC#CC(O)(Cn1cncn1)C(C)(C)C (centres unmarked) [Compound 4, 2,2-dimethyl-3-hydroxy-3-(oct-1-yne-1-yl)-4-(1,2,4-triazol-1-yl)-butane] | – | 5.8% | 23.7% | 27.5% | 8.2% | 21% | – | 1GT | – | – | – | 1 (10-30% retardation) | 1G | 2G | 1G | 2 (21-60% retardation) | – | – | – | – | Retardation score (1-3) with greening (G), apical damage (A), tillering/side shooting (T) (Maize): 1G |
